Measurements from PubChem BioAssay AID651854 (Broad Institute, 2012).
Active and inactive are the calls of the source. No rule for the calls is given here.

Columns and labels:
[1] = inducers of V. cholerae light production, dose response, BH1578, luxS and cqsA deficient, dry powder (AID 651854); conditions: V. cholerae BH1578 lux reporter, luminescence, 6 h
[2] = tested on: V. cholerae BH1578 lux reporter, luminescence, 6 h; experiment: as above

SMILES | light induction ([1]; at 35 µM (top of the series)) | also measured
CO[C@H]1CN(C)C(=O)c2cc(NS(=O)(=O)c3c(C)noc3C)ccc2OC[C@H](C)NC[C@@H]1C | 0% (inactive) | 
O=C(C[C@@H]1CC[C@@H]2[C@H](COC[C@H](O)CN2Cc2ccc(C(F)(F)F)cc2)O1)N1CCc2ccccc2C1 | 0.313% (inactive) | 
C[C@@H]1CN([C@@H](C)CO)S(=O)(=O)c2ccc(-c3ccncc3)cc2O[C@@H]1CN(C)S(=O)(=O)c1ccccc1F | 0.546% (inactive) | 
Cn1nc(NC(=O)c2ccco2)c2c(F)cccc21 | -0.824% (inactive) | 
COc1ccc(CNC(=O)N(C)C[C@@H]2OCc3ccccc3-c3c(n(C)c4ccccc34)C(=O)N([C@@H](C)CO)C[C@H]2C)cc1 | 1.27% (inactive) | 
Cc1cc(C)c2c(NC(=O)c3ccco3)nn(C)c2n1 |  | AC40 [2]: > 35 µM (inactive)
CCn1nnnc1NCc1ccc(N2CCCC2)cc1 |  | AC40 [2]: < 0.135 µM
Cc1ccc2cc3c(NC(=O)C4CCCCC4)nn(C)c3nc2c1 |  | AC40 [2]: < 0.135 µM
CC(C)NC(=O)Nc1ccc2c(c1)C(=O)N([C@H](C)CO)C[C@H](C)[C@@H](CN(C)Cc1ccncc1)OCCCC[C@@H](C)O2 |  | light induction ([1]; at 30 µM (top of the series)): 3.45% (inactive)
Cc1ccc2cc3c(NC(=O)c4ccccc4)nn(C)c3nc2c1 | 0.503% (inactive) | 
O=[N+]([O-])c1ccc(N(CCO)CCO)c2c1no[n+]2[O-] | 9.14% (inactive) | 
CCCN(C)C[C@@H]1Oc2cc(C#Cc3cccc(OC)c3)ccc2S(=O)(=O)N([C@@H](C)CO)C[C@@H]1C | -0.148% (inactive) | 
C[C@H]1CN([C@@H](C)CO)C(=O)Cc2cc(NS(C)(=O)=O)ccc2O[C@H]1CN(C)Cc1ccc(-c2ccccc2)cc1 | -0.148% (inactive) | 
C[C@H](NC(=O)C[C@@H]1CC[C@H]2[C@H](COc3ccc(NS(=O)(=O)c4ccc(Cl)cc4)cc3C(=O)N2C)O1)c1ccccc1 | 0.158% (inactive) | 
C[C@H]1CCCCO[C@H](CN(C)C(=O)c2ccccc2)[C@@H](C)CN([C@@H](C)CO)C(=O)c2cc(NC(=O)c3ccccc3)ccc2O1 | -0.733% (inactive) | 
CN1C(=O)c2cc(NS(C)(=O)=O)ccc2OC[C@@H]2O[C@H](CC(=O)NCc3ccc(-c4ccccc4)cc3)CC[C@@H]21 | 0.313% (inactive) | 
Cc1ccc2cc3c(NC(=O)c4ccccn4)nn(C)c3nc2c1 | -0.663% (inactive) | 
O=C(N[C@@H]1C=C[C@H](CC(=O)N2CCCCC2)O[C@H]1CO)c1ccc2c(c1)OCO2 | 0% (inactive) | 
COc1ccc(-c2ccc([C@H]3[C@@H](C#N)N(C(=O)NC4CCCCC4)[C@H]3CO)cc2)cc1 |  | AC40 [2]: > 35 µM (inactive)
CCCn1nnnc1NCc1ccc(N2CCCC2)cc1 |  | AC40 [2]: < 0.135 µM
CCOC(=O)c1cc2c(c(-c3cccc(Br)c3)n1)[C@@H](CCO)N(C(=O)NC(C)C)C2 | 0.322% (inactive) | 
Cc1ccc2cc3c(NC(=O)c4ccco4)nn(CC(C)C)c3nc2c1 | 2.93% (inactive) | 
O=[N+]([O-])c1ccc(N2CCOCC2)c2c1no[n+]2[O-] | 0.322% (inactive) | 
Cc1ccccc1-c1ccc2c(c1)O[C@H](CN(C)Cc1ccc(C(=O)O)cc1)[C@@H](C)CN([C@H](C)CO)S2(=O)=O | -0.148% (inactive) | 
CCn1nc(NC(=O)c2ccco2)c2cc3ccccc3nc21 |  | AC40 [2]: 5.43 µM
CCn1nc(NC(=O)c2ccco2)c2cc3ccc(C)cc3nc21 |  | AC40 [2]: > 35 µM (inactive)

SMILES | light induction ([1]; at 35 µM (top of the series)) | also measured
CC(C)c1cccc(NC(=O)C[C@H]2CC[C@H]3[C@@H](COc4ccc(NC(=O)c5ccc(C#N)cc5)cc4C(=O)N3C)O2)c1 | 0.322% (inactive) | 
COc1ccc(C#Cc2cnc3c(c2)C(=O)N([C@@H](C)CO)C[C@H](C)[C@H](CN(C)C(=O)CC2CC2)O3)cc1 | 0% (inactive) | 
CCCC#Cc1cnc2c(c1)C(=O)N([C@H](C)CO)C[C@H](C)[C@H](CN(C)C(=O)CCN1CCCCC1)O2 | -0.148% (inactive) | 
Cc1cccc2cc3c(NC(=O)c4ccco4)nn(C)c3nc12 |  | AC40 [2]: < 0.135 µM
C[C@H](CO)N1C[C@H](C)[C@@H](CN(C)S(=O)(=O)c2ccccc2)Oc2c(NC(=O)Nc3ccc4c(c3)OCO4)cccc2C1=O |  | AC40 [2]: > 16 µM (inactive)
CC(C)COC(=O)CNc1n[nH]c(=S)[nH]c1=O |  | AC40 [2]: > 35 µM (inactive)
O=C(NC1CCCCC1)C(=O)c1c[nH]c2ccccc12 |  | AC40 [2]: > 35 µM (inactive)
CO[C@@H]1CC[C@H]2CCOc3ccc(C#N)cc3C(=O)N(C)[C@H](C)C(=O)N(C)C[C@@H]1O2 | 0.313% (inactive) | 
CC=Cc1ccc2n(c1=O)C[C@@H]1[C@@H](CO)[C@H](C(=O)NCC)N(Cc3ccccc3Cl)[C@H]21 (mixture of isomers) | 0.694% (inactive) | 
Cc1noc(C)c1NC(=O)N(C)C[C@@H]1Oc2ccc(NC(=O)CCC(F)(F)F)cc2C(=O)N([C@@H](C)CO)C[C@@H]1C | 0.322% (inactive) | 
Cn1c(C(=O)NC2CCCCC2)cc2c(=O)n(C)c3ccccc3c21 |  | AC40 [2]: > 35 µM (inactive)
CCC(=O)Nc1nn(C)c2nc3cc(C)ccc3cc12 | -0.824% (inactive) | 
Cc1noc(C)c1NC(=O)N(C)C[C@H]1Oc2ccc(NC(=O)CCC(F)(F)F)cc2C(=O)N([C@H](C)CO)C[C@H]1C | 0% (inactive) | 
CO[C@@H]1CC[C@@H]2CCOc3ccc(C#N)cc3C(=O)N(C)C[C@H](C)C(=O)N(C)C[C@H]1O2 | 0.497% (inactive) | 
O=C(O)C[C@@H]1CC[C@H](NC(=O)c2ccncc2)[C@@H](CO)O1 | 0.322% (inactive) | 
COc1ccc(-c2ccc([C@@H]3[C@H](C#N)N(C(=O)NC4CCCCC4)[C@H]3CO)cc2)cc1 | -0.497% (inactive) | 
C[C@H](CO)N1C[C@H](C)[C@@H](CN(C)C(=O)NC2CCCCC2)OCc2ccccc2-c2c(n(C)c3ccccc23)C1=O | 0% (inactive) | 
CO[C@H]1CN(C)C(=O)c2cccc(C#N)c2OCC[C@@H]2CC[C@@H](OC)[C@@H](CN(C)C(=O)[C@H]1C)O2 | 5.31% (inactive) | 
C[C@H](CO)N1C[C@H](C)[C@@H](CN(C)S(=O)(=O)c2ccccc2F)Oc2cc(-c3ccncc3)ccc2S1(=O)=O | 0% (inactive) | 
C[C@H](CO)N1C[C@H](C)[C@H](CN(C)C(=O)Cc2ccncc2)Oc2cc(C3=CCCCC3)ccc2S1(=O)=O | 0.158% (inactive) | 
C[C@H]1CN([C@@H](C)CO)C(=O)c2cc(NC(=O)CCC(F)(F)F)ccc2O[C@H]1CN(C)Cc1ccc(Cl)c(Cl)c1 | 1.05% (inactive) | 
CCn1nnc(NCc2ccc(N3CCCC3)cc2)n1 | 10.7% (inactive) | 
COc1ccc(C#Cc2ccc3c(c2)O[C@H](CN(C)C(=O)CN2CCOCC2)[C@@H](C)CN([C@@H](C)CO)S3(=O)=O)cc1 | 0% (inactive) | 
COCC(=O)N[C@@H]1C=C[C@H](CC(=O)N2CCCCC2)O[C@@H]1CO | 0.262% (inactive) | 
CO[C@@H]1CN(C)C(=O)c2cc(NC(=O)C3CC3)ccc2OC[C@H](C)N(C(=O)NC(C)C)C[C@H]1C | 1.05% (inactive) | 
